Measured values taken from patent US20260199323A1, “LIGAND COMPOUNDS FOR E3 UBIQUITIN LIGASE, PROTEIN DEGRADERS DEVELOPED ON BASIS OF LIGAND COMPOUNDS, AND USES THEREOF” (GLUETACS THERAPEUTICS (SHANGHAI) CO., LTD., priority 2021, published 2026).
Like-named read-outs stand apart in the source and are kept apart here. One block for each compound: values may come before it.

Assays:
CCRF-CEM = assay: CCK-8 tumor cell proliferation, CCRF-CEM; assay type: cell-based, Human; details: Homo sapiens, CCRF-CEM, read-out: IC50 inhibiting proliferation of tumor cells, CCRF-CEM
Outline: (§1)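 Cell viability (CCK-8) after compound exposure; IC50 calculated. Cells seeded, treated after 24 h, maximum dose 10 μM, 5-fold serial dilutions over 10 concentrations.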

HCC827 = assay: CCK-8 tumor cell proliferation, HCC827; assay type: cell-based, Human; details: for IC50: Homo sapiens, HCC827, read-out: IC50 inhibiting proliferation of tumor cells, HCC827; for IC50 for inhibiting the proliferation of tumor cells, HCC827: Table 11, designed based on EGFR inhibitors, 96 h
Procedure: The tumor cells used herein were cultured in a cell culture medium listed in table 4 at 37° C. in an incubator with 5% CO2.
(§2) After 24 h, 100 μL of the inoculated cells were treated with 0.5 μL of the compounds of the present disclosure (including the compounds in Tables 1 and 3, and compounds of examples) at 10 different successively decreasing concentrations (starting at the highest concentration of 10 μM; 5-fold serial dilutions). After the cells were treated with the compounds of the present disclosure for a period of time, the cell viability detection reagent was added to the culture medium for cell viability assessment according to the instructions provided with the CCK-8 kit. […] The growth inhibition of the compounds of the present disclosure on cells was plotted by Prism Graphpad software, and the IC50 values of the compounds of the present disclosure were calculated therefrom.

MDA-MB-231 = assay: CCK-8 tumor cell proliferation, MDA-MB-231; assay type: cell-based, Human; details: Homo sapiens, MDA-MB-231, read-out: IC50 inhibiting proliferation of tumor cells, MDA-MB-231
Outline: as §1

MM.1S = assay: CCK-8 tumor cell proliferation, MM.1S; assay type: cell-based; details: Homo sapiens, MM1.S; Table 20; MM.1S; given as number; read-out: IC50 inhibiting proliferation of tumor cells, MM.1S
Outline: as §1

SR = assay: CCK-8 tumor cell proliferation, SR; assay type: cell-based, Human; details: Homo sapiens, SR, read-out: IC50 inhibiting proliferation of tumor cells, SR
Outline: as §1

LNcap = assay: CCK-8 tumor cell proliferation, LNcap; assay type: cell-based, Human; details: Homo sapiens
Procedure: (§3) The tumor cells used herein were cultured in a cell culture medium listed in table 4 at 37° C. in an incubator with 5% CO2. Prior to experimentation, all cells used were correctly identified by STR profiling, and tested negative for mycoplasma through routine screenings.
as §2, with “IC50 values of the compounds of the present disclosure (including the compounds in Tables 1 and 3, and compounds of examples) were measured using the Meilun Cell Counting Kit-8 kit from Dalian Meilun Biotech Co., Ltd. Assay details are as follows: tumor cells were seeded in a 96-well plate at a density listed in Table 5. After 24” for “After 24”

PC-9 = assay: CCK-8 tumor cell proliferation, PC-9; assay type: cell-based, Human; details: Homo sapiens; Table 15, ALK inhibitor based; PC-9; read-out: IC50 inhibiting proliferation of tumor cells, PC-9
Mino = assay: CCK-8 tumor cell proliferation, Mino; assay type: cell-based, Human; details: Homo sapiens; Table 15, ALK inhibitor based; Mino; read-out: IC50 inhibiting proliferation of tumor cells, Mino
Outline: as §1

Hep3B2.7-1 = assay: CCK-8 tumor cell proliferation, Hep3B2.7-1; assay type: cell-based, Human; details: Homo sapiens
Procedure: as §3
as §2, with “IC50 values of the compounds of the present disclosure (including the compounds in Tables 1 and 3, and compounds of examples) were measured using the Meilun Cell Counting Kit-8 kit from Dalian Meilun Biotech Co., Ltd. Assay details are as follows: tumor cells were seeded in a 96-well plate at a density listed in Table 5. After 24” for “After 24”

Kasumi-1 = assay: CCK-8 tumor cell proliferation, Kasumi-1; assay type: cell-based, Human; details: Homo sapiens, Kasumi-1, read-out: IC50 inhibiting proliferation of tumor cells, Kasumi-1
Procedure: as §3
as §2, with “IC50 values of the compounds of the present disclosure (including the compounds in Tables 1 and 3, and compounds of examples) were measured using the Meilun Cell Counting Kit-8 kit from Dalian Meilun Biotech Co., Ltd. Assay details are as follows: tumor cells were seeded in a 96-well plate at a density listed in Table 5. After 24” for “After 24”

MM.1R = assay: CCK-8 tumor cell proliferation, MM.1R; assay type: cell-based; details: read-out: IC50 inhibiting proliferation of tumor cells, MM.1R
Procedure: as §3
as §2, with “IC50 values of the compounds of the present disclosure (including the compounds in Tables 1 and 3, and compounds of examples) were measured using the Meilun Cell Counting Kit-8 kit from Dalian Meilun Biotech Co., Ltd. Assay details are as follows: tumor cells were seeded in a 96-well plate at a density listed in Table 5. After 24” for “After 24”

Jurkat = assay: CCK-8 tumor cell proliferation, Jurkat; assay type: cell-based, Human; details: Homo sapiens, read-out: IC50 inhibiting proliferation of tumor cells, Jurkat
Outline: as §1

[1] = Table 20, BCL-2 inhibitor based
[2] = Table 22, NTRK inhibitor based, HEP3B2.7-1, read-out: IC50 inhibiting proliferation of tumor cells, HEP3B2.7-1
[3] = Table 19, IRAK4 inhibitor based
[4] = Table 19, IRAK4 inhibitor based, Hep3B2.7-1, read-out: IC50 inhibiting proliferation of tumor cells, Hep3B2.7-1
[5] = Table 19, IRAK4 inhibitor based, Lncap, read-out: IC50 inhibiting proliferation of tumor cells, Lncap

SMILES: CC1(C)CCC(CN2CCN(c3ccc(C(=O)NS(=O)(=O)c4ccc(NCC5CCOCC5)c([N+](=O)[O-])c4)c(Oc4cnc5[nH]ccc5c4)c3)CC2)=C(c2ccc(Cl)cc2)C1 [ABT-199, Venetoclax, reference compound]
IC50 (CCRF-CEM; Table 20, given as number): > 10000 nM
IC50 (HCC827; [1]): 5000 to 10000 nM
IC50 (MDA-MB-231; [1]): 1000 to 5000 nM
IC50 (MM.1S): > 10000 nM
IC50 (SR; [1]): 500 to 1000 nM
IC50 (LNcap; Table 20, BCL-2 inhibitor based, LNcap, read-out: IC50 inhibiting proliferation of tumor cells, LNcap): 1000 to 5000 nM

SMILES: COc1cc2ncnc(Nc3cccc(Cl)c3F)c2cc1OCc1ccc2c(c1)CN(C1CCC(=O)NC1=O)C2=O (centres unmarked) [GT-03325, 3-(5-(((4-((3-chloro-2-fluorophenyl)amino)-7-methoxyquinazolin-6-yl)oxy)methyl)-1-oxoisoindolin-2-yl)piperidine-2,6-dione]
IC50 for inhibiting the proliferation of tumor cells, HCC827 (HCC827): A+

SMILES: CCc1cc2c(cc1N1CCC(N(C)Cc3ccc4c(c3)CN(C3CCC(=O)NC3=O)C4=O)CC1)C(C)(C)c1[nH]c3cc(C#N)ccc3c1C2=O (centres unmarked) [GT-03474, 8-(4-(((2-(2,6-dioxopiperidin-3-yl)-1-oxoisoindolin-5-yl)methyl)(methyl)amino)piperidin-1-yl)-9-ethyl-6,6-dimethyl-11-oxo-6,11-dihydro-5H-benzo[b]carbazole-3-carbonitrile]
IC50 (HCC827; Table 15, ALK inhibitor based): 1000 to 5000 nM
IC50 (MDA-MB-231; Table 15, ALK inhibitor based): 1000 to 5000 nM
IC50 (SR; Table 15, ALK inhibitor based): < 50 nM
IC50 (PC-9): 500 to 1000 nM

SMILES: COc1cc(N2CCC(N(C)Cc3cc4c(cc3F)C(=O)N(C3CCC(=O)NC3=O)C4)CC2)ccc1Nc1ncc(Cl)c(Nc2ccccc2P(C)(C)=O)n1 (centres unmarked) [GT-03601, 3-(5-(((1-(4-((5-chloro-4-((2-(dimethylphosphoryl)phenyl)amino)pyrimidin-2-yl)amino)-3-methoxyphenyl)piperidin-4-yl)(methyl)amino)methyl)-6-fluoro-1-oxoisoindolin-2-yl)piperidine-2,6-dione]
IC50 (HCC827; Table 15, ALK inhibitor based): 100 to 500 nM
IC50 (MDA-MB-231; Table 15, ALK inhibitor based): 100 to 500 nM
IC50 (SR; Table 15, ALK inhibitor based): < 50 nM
IC50 (Mino): 5000 to 10000 nM
IC50 (PC-9): 100 to 500 nM

SMILES: C=CC(=O)Nc1cc(Nc2nccc(-c3cn(C)c4ccccc34)n2)c(OC)cc1N(C)CCN(C)C [osimertinib, Osimertinib, reference compound]
IC50 for inhibiting the proliferation of tumor cells, HCC827 (HCC827): A+

The next lines start with the values.

IC50 (CCRF-CEM; Table 22, NTRK inhibitor based): < 50 nM
IC50 (Hep3B2.7-1; [2]): < 50 nM
IC50 (Kasumi-1; Table 22, NTRK inhibitor based): 100 to 500 nM
IC50 (MM.1R; Table 22, NTRK inhibitor based): < 50 nM
IC50 (Jurkat; Table 22, NTRK inhibitor based): 100 to 500 nM
SMILES: O=C1CCC(N2Cc3cc(CN4CCN(c5cccc(-c6cnn7ccc(N8CCC[C@@H]8c8cc(F)ccc8F)nc67)n5)CC4)ccc3C2=O)C(=O)N1 (stereo partly drawn) [GT-04262, 3-(5-((4-(6-(5-((R)-2-(2,5-difluorophenyl)pyrrolidin-1-yl)pyrazolo[1,5-a]pyrimidin-3-yl)pyridin-2-yl)piperazin-1-yl)methyl)-1-oxoisoindolin-2-yl)piperidine-2,6-dione]

IC50 (CCRF-CEM; Table 22, NTRK inhibitor based): 50 to 100 nM
IC50 (Hep3B2.7-1; [2]): < 50 nM
IC50 (Kasumi-1; Table 22, NTRK inhibitor based): 500 to 1000 nM
IC50 (MM.1R; Table 22, NTRK inhibitor based): < 50 nM
IC50 (Jurkat; Table 22, NTRK inhibitor based): 100 to 500 nM
SMILES: O=C1CCC(N2Cc3c(ccc(CN4CCN(c5cccc(-c6cnn7ccc(N8CCC[C@@H]8c8cc(F)ccc8F)nc67)n5)CC4)c3F)C2=O)C(=O)N1 (stereo partly drawn) [GT-04263, 3-(5-((4-(6-(5-((R)-2-(2,5-difluorophenyl)pyrrolidin-1-yl)pyrazolo[1,5-a]pyrimidin-3-yl)pyridin-2-yl)piperazin-1-yl)methyl)-4-fluoro-1-oxoisoindolin-2-yl)piperidine-2,6-dione]

IC50 (CCRF-CEM; [3]): 100 to 500 nM
IC50 (Hep3B2.7-1; [4]): < 50 nM
IC50 (Kasumi-1; [3]): 50 to 100 nM
IC50 (MM.1R; [3]): 100 to 500 nM
IC50 (LNcap; [5]): 100 to 500 nM
IC50 (Jurkat; [3]): 50 to 100 nM
SMILES: O=C1CCC(N2Cc3cc(CN4CCN(c5ccc(-n6cc(NC(=O)c7coc(-c8ccnc(NCC(F)(F)F)c8)n7)c(C(F)F)n6)cc5)CC4)c(F)cc3C2=O)C(=O)N1 (centres unmarked) [GT-04269, N-(3-(difluoromethyl)-1-(4-(4-((2-(2,6-dioxopiperidin-3-yl)-6-fluoro-1-oxoisoindolin-5-yl)methyl)piperazin-1-yl)phenyl)-1H-pyrazol-4-yl)-2-(2-((2,2,2-trifluoroethyl)amino)pyridin-4-yl)oxazole-4-carboxamide]

IC50 (Hep3B2.7-1; [4]): 500 to 1000 nM
IC50 (Kasumi-1; [3]): 100 to 500 nM
IC50 (Jurkat; [3]): 100 to 500 nM
SMILES: O=C1CCC(N2Cc3cc(CN4CCN(c5ccc(-n6cc(NC(=O)c7coc(-c8ccnc(NCC(F)(F)F)c8)n7)c(C(F)F)n6)cc5)CC4)cc(F)c3C2=O)C(=O)N1 (centres unmarked) [GT-04270, N-(3-(difluoromethyl)-1-(4-(4-((2-(2,6-dioxopiperidin-3-yl)-7-fluoro-1-oxoisoindolin-5-yl)methyl)piperazin-1-yl)phenyl)-1H-pyrazol-4-yl)-2-(2-((2,2,2-trifluoroethyl)amino)pyridin-4-yl)oxazole-4-carboxamide]

IC50 (CCRF-CEM; [3]): < 50 nM
IC50 (Hep3B2.7-1; [4]): < 50 nM
IC50 (Kasumi-1; [3]): < 50 nM
IC50 (MM.1R; [3]): < 50 nM
IC50 (LNcap; [5]): 50 to 100 nM
IC50 (Jurkat; [3]): < 50 nM
SMILES: O=C1CCC(N2Cc3c(CN4CCN(c5ccc(-n6cc(NC(=O)c7coc(-c8ccnc(NCC(F)(F)F)c8)n7)c(C(F)F)n6)cc5)CC4)cccc3C2=O)C(=O)N1 (centres unmarked) [GT-04271, N-(3-(difluoromethyl)-1-(4-(4-((2-(2,6-dioxopiperidin-3-yl)-1-oxoisoindolin-4-yl)methyl)piperazin-1-yl)phenyl)-1H-pyrazol-4-yl)-2-(2-((2,2,2-trifluoroethyl)amino)pyridin-4-yl)oxazole-4-carboxamide]

IC50 (Hep3B2.7-1; [4]): 500 to 1000 nM
IC50 (Kasumi-1; [3]): 50 to 100 nM
IC50 (MM.1R; [3]): 500 to 1000 nM
IC50 (LNcap; [5]): 100 to 500 nM
IC50 (Jurkat; [3]): 1000 to 5000 nM
SMILES: O=C1CCC(N2C(=O)c3ccc(CN4CCN(c5ccc(-n6cc(NC(=O)c7coc(-c8ccnc(NCC(F)(F)F)c8)n7)c(C(F)F)n6)cc5)CC4)cc3C2=O)C(=O)N1 (centres unmarked) [GT-04272, N-(3-(difluoromethyl)-1-(4-(4-((2-(2,6-dioxopiperidin-3-yl)-1,3-dioxoisoindolin-5-yl)methyl)piperazin-1-yl)phenyl)-1H-pyrazol-4-yl)-2-(2-((2,2,2-trifluoroethyl)amino)pyridin-4-yl)oxazole-4-carboxamide]
